Reference: patent EP3906926A1, “PROLINE HYDROXYLASE INHIBITORS FOR USE IN THE SKELETAL MUSCLE REGENERATION” (Policlinico San Donato S.p.A.- Istituto di Ricovero e Cura …, priority 2020, dated 2021)

Key:
MYOR = assay: qPCR of MYOR; format: cell-based, murine; conditions: IOX2 or FG-4592 treatment, vs controls
Experimental: (§1) Total RNA was isolated using ReliaPrep™ RNA Miniprep Systems (Promega), and reverse transcribed to cDNA using the iScript cDNA synthesis kit (BioRad), according to the Manufacturer's instructions. Real-Time Quantitative PCR was performed on 10 ng of cDNA template, 0.2 µM primers, and GoTaq® qPCR Master Mix (Promega) in 20 µl final volume using a StepOnePlus® Real-Time PCR System (Applied Biosystem). […] RPL13 was used as the housekeeping gene. The amplification program consisted in an initial denaturation at 95°C for 3 minutes, followed by 40 cycles of 5 seconds each at 95°C and 30 seconds at 57°C; WNT7a was amplified at 53°C. Relative quantification of target genes was performed in triplicate and calculated by the equation 2^-ΔΔCt.

WNT7a = assay: qPCR of WNT7a gene expression; format: cell-based, murine; conditions: IOX2 or FG-4592 treatment
Experimental: as §1

MyoD = assay: Western blot of MyoD nuclear localization in WNT7a-KO versus wild type myoblasts; format: cell-based, murine; conditions: WNT7a-KO vs wild type cells, after 24 h inhibitor pre-treatment
Experimental: For nuclei separation, 5 x 10^6 cells were collected after enzymatic digestion with trypsin (Merck), centrifuged at the maximum speed, resuspended in 400 µl of Buffer A (10 mM KCl, 0.1 mM EDTA, 1 mM DTT, 10 mM Hepes, pH 7.9), containing protease and phosphatase inhibitors cocktail (Merck), and incubated on ice for 20 minutes. Then, 10% NP40 was added to the cell suspension, mixed for 40 seconds, and centrifuged 40 seconds at the maximum speed. After centrifugation, the pellet was resuspended in 80 µl of Buffer C (0.4M NaCl, 1 mM EDTA, 1 mM DTT, 20 mM Hepes, pH 7.9), containing a protease and phosphatase inhibitors cocktail, and then mixed for 30 minutes at 4°C at the maximum speed. Finally, the nuclear suspension was centrifuged for 5 minutes at 4°C at the maximum speed, collected and transferred in a new tube. The total protein content was determined with the BCA Protein Assay Kit (Pierce), according to the manufacturer's instructions.
Proteins were denaturated by boiling for 10 minutes in sample buffer (0.6 g/100 mL Tris, 2 g/100 mL SDS, 10% glycerol, 1% 2-mercaptoethanol, pH 6.8) and loaded into 10% SDS-PAGE gel, then transferred onto a nitrocellulose membrane (Trans-blot, Bio-Rad Laboratories) by electroblotting. […]
(§2) Therefore, WNT7a silencing was conducted by Crispr/Cas9 genome editing in C2C12 murine myoblasts and the effects on myogenesis were evaluated.

MHC [1] = assay: qPCR of MHC during differentiation; format: cell-based, murine; conditions: day 7 of differentiation, IOX2 or FG-4592 pre-treated myoblasts
Experimental: as §1
as §1, with “ReliaPrepTM” for “ReliaPrep™”, “2-ΔΔCt.” for “2^-ΔΔCt.”

MHC [2] = assay: Western blot of MHC in WNT7a-KO versus wild type myoblasts at end of differentiation; format: cell-based, murine; conditions: WNT7a-KO vs wild type cells, inhibitor pre-treated
Experimental: Cells were collected after enzymatic digestion with trypsin (Merck), lysed by sonication and centrifuged at 800 xg for 10 minutes. Supernatant was used to determine total protein content with the BCA Protein Assay Kit (Pierce), according to the manufacturer's instructions.
Proteins were denaturated by boiling for 10 minutes in sample buffer (0.6 g/100 mL Tris, 2 g/100 mL SDS, 10% glycerol, 1% 2-mercaptoethanol, pH 6.8) and loaded into 10% SDS-PAGE gel, then transferred onto a nitrocellulose membrane (Trans-blot, Bio-Rad Laboratories) by electroblotting. Nitrocellulose membranes were incubated with a blocking solution containing 5% (w/v) non-fat dry milk or 5% (w/v) BSA (Merck) in Tris-buffer saline with 0.1% Tween® 20 (TBS-T) for 1 hour. […] Membranes were washed three times for 10 minutes with TBS-T, and then incubated with the appropriate anti-mouse, anti-rabbit, or anti-goat HRP-conjugated secondary antibodies (Dako, Agilent Technologies), 1:2000 dilution, for 1 hour at room temperature. After three washes for 10 minutes with TBS-T, the immunoreactive bands were visualized using the enhanced chemiluminescence detection kit reagents (ECL Advance, GeHealthcare), according to the manufacturer's instructions.
as §2

PHD2 = assay: qPCR of HIF-1α target gene PHD2; format: cell-based, murine; conditions: IOX2 or FG-4592 treatment, vs untreated controls
Experimental: as §1
as §1, with “ReliaPrepTM” for “ReliaPrep™”, “2-ΔΔCt.” for “2^-ΔΔCt.”

C2C12 murine myoblasts = assay: RealTime-Glo MT Cell Viability Assay; conditions: at IC50 concentrations (50 µM IOX2, 40 µM FG-4592), 24 hours, vs untreated controls
Experimental: RealTime-Glo™ kits MT Cell Viability Assay (Promega) was used to investigate the effects of IOX2 and FG-4592 treatment on cell viability. Briefly, 5 x 10^3 C2C12 murine myoblasts were seeded in a 96 well plate and incubated for 24 hours (T0) with MT Cell Viability Substrate (1:1000 dilution) and NanoLuc® Enzyme (1:1000 dilution). Then, 50 µM IOX2 or 40 µM FG-4592 were added to the cell cultures and incubated for other 24 hours before luminescence analysis.
RealTime-Glo™ kits MT Cell Viability Assay (Promega) was used to investigate the effects of PLG treatment on cell viability. Briefly, 5 x 10^3 C2C12 murine myoblasts were seeded in a 96 well plate and incubated for 24 hours (T0) with MT Cell Viability Substrate (1:1000 dilution) and NanoLuc® Enzyme (1:1000 dilution). Then, each PLG inhibitor was added at its EC50 to the cell cultures and incubated for other 24 hours before luminescence analysis.

murine myoblasts C2C12 = assay: Skeletal muscle differentiation, MHC immunofluorescence (fusion and differentiation indexes); format: cell-based; conditions: IOX2 or FG-4592 24 hours in GM, then 7 days in DM without inhibitor; vs untreated controls
Experimental: (§3) The DM was changed every day for 7 days. Cells were analyzed at 24 hours post-treatment (PT), at 3rd and 7th days of skeletal muscle differentiation.
After differentiation for 7 days in DM, cells were washed with phosphate saline buffer (PBS) and fixed for 15 minutes in 4% (w/v) paraformaldehyde at room temperature. For permeabilization and blocking, cells were incubated for 1 hour in the presence of PBS 0.1% (v/v) Triton X-100 (TX-100, Merck) and 5% (w/v) FBS (Merck) at room temperature. […] After incubation, cells were washed three times in PBS and incubated for 1 hour at room temperature with an anti-mouse FITC-conjugated secondary antibody (Jackson ImmunoResearch), diluted 1:200. […] Myogenesis was assessed by measuring the myotube area and the number of myonuclei per myotube using a fluorescent microscope (Olympus TH4-200) equipped with an acquisition camera. To quantify both differentiation and fusion indexes, ten fields were chosen randomly and, for each field, a minimum of one hundred myosin-positive myotubes with more than two myonuclei were measured using the ImageJ v1.49o software. The area and the number of nuclei per myotube was the mean of ten measurements averaged from three different experiments.
as §3

Myogenin = assay: qPCR of Myogenin during differentiation; format: cell-based, murine; conditions: day 3 of differentiation, IOX2 or FG-4592 pre-treated myoblasts
Experimental: as §1
as §1, with “ReliaPrepTM” for “ReliaPrep™”, “2-ΔΔCt.” for “2^-ΔΔCt.”

VEGF = assay: qPCR of HIF-1α target gene VEGF; format: cell-based, murine; conditions: IOX2 or FG-4592 treatment, vs untreated controls
Experimental: as §1
as §1, with “ReliaPrepTM” for “ReliaPrep™”, “2-ΔΔCt.” for “2^-ΔΔCt.”

Compound	MYOR mRNA level down-regulated (MYOR)	increase in WNT7a gene expression (WNT7a)	decrease of MyoD nuclear localization (MyoD)	enhancement of MHC (MHC [1])	decrease of MHC expression (MHC [2])	increase in the expression of PHD2 (PHD2)	Cell viability (C2C12 murine myoblasts)	fusion index (murine myoblasts C2C12)	increase in the differentiation index (murine myoblasts C2C12)	increase of Myogenin (Myogenin)	increase in the expression of VEGF (VEGF)
O=C(O)CNC(=O)c1c(O)c2ccccc2n(Cc2ccccc2)c1=O [IOX2]	2.2 fold	1.4 fold	no significant changes	2.2 fold	18%	4.4 fold	no significant changes	no significant changes	1.5 fold	2.0 fold	1.6 fold
Cc1nc(C(=O)NCC(=O)O)c(O)c2ccc(Oc3ccccc3)cc12 [FG-4592, Roxadustat]	2.6 fold	2.3 fold	42%	2.3 fold	36%	4.8 fold	no significant changes		1.3 fold	1.4 fold	2.1 fold
